Data from patent US11116774B2, “Modulators of toll-like receptors for the treatment of HIV” (Gilead Sciences, Inc., priority 2014, dated 2021).

Tested on: peripheral CD4 lymphocytes (CD3+CD4+CD8−)
Test: Peripheral lymphocyte activation, CD69 by flow cytometry: CD4 lymphocytes (Example 206)
Assay type: in vivo, rhesus macaque
Source text: During the course of treatment with the compound of Example 4 as described in Example 204, peripheral lymphocyte activation was monitored in the groups dosed with the compound of Example 4 or the dosing vehicle of Example 201 (placebo), by measuring the expression of the early activation marker CD69 on various lymphocyte subsets by flow cytometry methodology. This methodology was used to quantify the percentage of immune cell subsets expressing the early activation marker. Standard data acquisition techniques were employed on a flow cytometer and by the use of antibodies conjugated to fluorescent molecules where the antibodies recognize rhesus macaque cell surface proteins on various immune cell subsets. In animals dosed with the compound of Example 4, whole blood samples were collected for each dose at various time points both at pre- and post-administration of compound. Total PBMCs were stained in the whole blood samples using antibodies that were chosen to be reactive to rhesus CD3, CD4, CD8, NKG2A, CD16 and CD56, each conjugated to different fluorescent probes to delineate CD3+CD4+CD8− lymphocytes, CD3+CD4−CD8+ lymphocytes and CD3-CD8+ NKG2A+CD16+ CD56+ NK cells. The flow cytometry data presented herein are from animals treated with the compound of Example 4.

CCCCOc1nc(N)c2c(n1)N(Cc1ccc(CN3CCCC3)cc1)CC(=O)N2 [Example 4]
mean maximum percent change in CD69 expression on CD4 lymphocytes (all subsequent doses): 1.7% | mean maximum percent change in CD69 expression on CD4 lymphocytes (dose 0.1 mg/kg, any time point (rise 24 to 72 hours post-dose), pre-dose range 0.5-1.7%): 1.1% | mean maximum percent change in CD69 expression on CD4 lymphocytes (dose 0.2 mg/kg, pre-dose range 0.5-2%): 1.5% | mean maximum percent change in CD69 expression on CD4 lymphocytes (first dose of 0.3 mg/kg, pre-dose range 0.6-2.5%): 2.3%
